16 molecules from patent US20220281876A1, “DEGRADATION OF BRUTON'S TYROSINE KINASE (BTK) BY CONJUGATION OF BTK INHIBITORS WITH E3 LIGASE LIGAND AND METHODS OF USE” (BEIGENE, LTD., priority 2019, published 2022) can be followed below.

Where only a bound is given, the exact number is not on record here.

T1 sequence (Q06187 whole entry): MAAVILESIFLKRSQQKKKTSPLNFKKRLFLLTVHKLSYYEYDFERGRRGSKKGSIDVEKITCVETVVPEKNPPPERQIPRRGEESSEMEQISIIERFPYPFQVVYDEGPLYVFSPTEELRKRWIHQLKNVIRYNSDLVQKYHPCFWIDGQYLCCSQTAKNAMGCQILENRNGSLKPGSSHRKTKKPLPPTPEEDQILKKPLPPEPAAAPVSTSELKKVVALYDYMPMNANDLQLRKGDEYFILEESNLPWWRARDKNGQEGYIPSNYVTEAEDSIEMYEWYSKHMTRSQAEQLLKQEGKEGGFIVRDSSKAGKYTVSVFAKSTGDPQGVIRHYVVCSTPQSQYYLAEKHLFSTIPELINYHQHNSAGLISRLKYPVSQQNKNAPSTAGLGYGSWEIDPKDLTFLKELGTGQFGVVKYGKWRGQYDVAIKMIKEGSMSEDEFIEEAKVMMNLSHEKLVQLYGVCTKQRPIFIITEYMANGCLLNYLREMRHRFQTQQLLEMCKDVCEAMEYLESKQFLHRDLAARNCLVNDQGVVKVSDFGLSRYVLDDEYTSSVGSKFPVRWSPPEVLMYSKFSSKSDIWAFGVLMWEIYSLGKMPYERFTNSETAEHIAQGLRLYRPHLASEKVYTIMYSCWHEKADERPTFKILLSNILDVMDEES

This assay addresses T1, BTK (Homo sapiens, UniProt Q06187).
T1 construct: endogenous in cells; host or cells: Ramos cells
The assay is described as follows: BTK cell degradation in Ramos cells (total BTK ELISA). Type of assay: cell-based. The settings on record: 16 h incubation, FastScan total BTK ELISA. The protocol:
Ramos cells are treated with compounds diluted in 0.1% DMSO, dilution is done according to the following protocol: (1) make 1000x stock solution in DMSO from 10 mM by 5-fold dilution, total 7 doses were included; (2) make 10x solution in cell culture medium by transferring 1 ul 1000x stock solution into 99 ul medium; (3) 11 ul of 10× solution is added to cells and incubate for 16 h.
Cells in 96 well plate are harvested by centrifugation (1200 rpm), and wash once with ice-cold PBS. Then, 100 ul 1×cell extraction buffer is added in each well. The cells are placed on a shaker for 20 min at 4° C.; 5 ul lysate is transferred to 45 ul of 1×cell extraction buffer in ELISA plate, and 50 ul of the antibody cocktail is added in each well; seal the plate and incubate 1 hour at room temperature on a plate shaker; medium is discarded from the plate, tap the plated on a paper towel, wash 3×200 ul ELISA wash buffer; add 100 ul of TMB to each well and incubate the plate in the dark for 15 min at room temperature on a shaker; add 100 ul of STOP solution to each well; read absorbance at 450 nm. The BTK ELISA assay was performed using FastScan total BTK ELISA kit (Cell Signaling Cat #36609).
In general, DC50 refers to the concentration giving 50% degradation. `NC(=O)c1c(-c2ccc(Oc3ccccc3)cc2)nn2c1NCC[C@H]2C1CCN(C(=O)CCN2CCC(CN3CCN(c4ccc5c(c4)C(=O)N(C4CCC(=O)NC4=O)C5=O)CC3)CC2)CC1` (stereo partly drawn) [Example 95, (7S)-7-(1-(3-(4-((4-(2-(2,6-dioxopiperidin-3-yl)-1,3-dioxoisoindolin-5-yl)piperazin-1-yl)methyl)piperidin-1-yl)propanoyl)piperidin-4-yl)-2-(4-phenoxyphenyl)-4,5,6,7-tetrahydropyrazolo[1,5-a]pyrimidine-3-carboxamide] registered a DC50 of 1.68 µM.

In turn, `NC(=O)c1c(-c2ccc(Oc3ccccc3)cc2)nn2c1NCC[C@H]2C1CCN(C(=O)CCN2CCC(N3CCN(c4ccc5c(c4)C(=O)N(C4CCC(=O)NC4=O)C5=O)CC3)CC2)CC1` (stereo partly drawn) [Example 156, (7S)-7-(1-(3-(4-(4-(2-(2,6-dioxopiperidin-3-yl)-1,3-dioxoisoindolin-5-yl)piperazin-1-yl)piperidin-1-yl)propanoyl)piperidin-4-yl)-2-(4-phenoxyphenyl)-4,5,6,7-tetrahydropyrazolo[1,5-a]pyrimidine-3-carboxamide] displayed a DC50 of 1.68 µM.

With `NC(=O)c1c(-c2ccc(Oc3ccccc3)cc2)nn2c1NCC[C@H]2C1CCN(C(=O)CCCc2cn(CCCCNC(=O)COc3cccc4c3C(=O)N(C3CCC(=O)NC3=O)C4=O)nn2)CC1` (stereo partly drawn) [Example 19, (7S)-7-(1-(4-(1-(4-(2-((2-(2,6-dioxopiperidin-3-yl)-1,3-dioxoisoindolin-4-yl)oxy)acetamido)butyl)-1H-1,2,3-triazol-4-yl)butanoyl)piperidin-4-yl)-2-(4-phenoxyphenyl)-4,5,6,7-tetrahydropyrazolo[1,5-a]pyrimidine-3-carboxamide], the DC50 was 6.41 µM.

Molecule `NC(=O)c1c(-c2ccc(Oc3ccccc3)cc2)nn2c1NCC[C@H]2C1CCN(C(=O)c2cn(CCOCCOCCOCCOCCOCCNc3cccc4c3C(=O)N(C3CCC(=O)NC3=O)C4=O)nn2)CC1` (stereo partly drawn) [Example 15, (7S)-7-(1-(1-(17-((2-(2,6-dioxopiperidin-3-yl)-1,3-dioxoisoindolin-4-yl)amino)-3,6,9, 12, 15-pentaoxaheptadecyl)-1H-1,2,3-triazole-4-carbonyl)piperidin-4-yl)-2-(4-phenoxyphenyl)-4,5,6,7-tetrahydropyrazolo[1,5-a]pyrimidine-3-carboxamide] returned a DC50 of 0.078 µM.

Turning to `NC(=O)c1c(-c2ccc(Oc3ccccc3)cc2)nn2c1NCC[C@H]2C1CCN(C(=O)c2cn(CCOCCOCCOCCNc3cccc4c3C(=O)N(C3CCC(=O)NC3=O)C4=O)nn2)CC1` (stereo partly drawn) [Example 8, (7S)-7-(1-(1-(2-(2-(2-(2-((2-(2,6-dioxopiperidin-3-yl)-1,3-dioxoisoindolin-4-yl)amino)ethoxy)ethoxy)ethoxy)ethyl)-1H-1,2,3-triazole-4-carbonyl)piperidin-4-yl)-2-(4-phenoxyphenyl)-4,5,6,7-tetrahydropyrazolo[1,5-a]pyrimidine-3-carboxamide], the DC50 amounted to 0.128 µM.

Turning to `NC(=O)c1c(-c2ccc(Oc3ccccc3)cc2)nn2c1NCC[C@H]2C1CCN(C(=O)c2cn(CCOCCOCCOCCOCCOCCOCCOCCNc3cccc4c3C(=O)N(C3CCC(=O)NC3=O)C4=O)nn2)CC1` (stereo partly drawn) [Example 17, (7S)-7-(1-(1-(23-((2-(2,6-dioxopiperidin-3-yl)-1,3-dioxoisoindolin-4-yl)amino)-3,6,9, 12, 15, 18, 21-heptaoxatricosyl)-1H-1,2,3-triazole-4-carbonyl)piperidin-4-yl)-2-(4-phenoxyphenyl)-4,5,6,7-tetrahydropyrazolo[1,5-a]pyrimidine-3-carboxamide], the DC50 is > 10 µM.

As to `CN(CC1CCN(C(=O)c2ccc(N3CCC(=O)NC3=O)cc2)CC1)C1CC(C(=O)N2CCC([C@@H]3CCNc4c(C(N)=O)c(-c5ccc(Oc6ccccc6)cc5)nn43)CC2)C1` (stereo partly drawn) [Example 155, (S)-7-(1-(3-(((1-(4-(2,4-dioxotetrahydropyrimidin-1(2H)-yl)benzoyl)piperidin-4-yl)methyl)(methyl)amino)cyclobutane-1-carbonyl)piperidin-4-yl)-2-(4-phenoxyphenyl)-4,5,6,7-tetrahydropyrazolo[1,5-a]pyrimidine-3-carboxamide], the 50% degradation concentration (DC50) stood at 0.0072 µM.

For the molecule `NC(=O)c1c(-c2ccc(Oc3ccccc3)cc2)nn2c1NCC[C@H]2C1CCN(C(=O)c2cn(CCOCCOCC#Cc3cccc4c3CN(C3CCC(=O)NC3=O)C4=O)nn2)CC1` (stereo partly drawn) [Example 4, (7S)-7-(1-(1-(2-(2-((3-(2-(2,6-dioxopiperidin-3-yl)-1-oxoisoindolin-4-yl)prop-2-yn-1-yl)oxy)ethoxy)ethyl)-1H-1,2,3-triazole-4-carbonyl)piperidin-4-yl)-2-(4-phenoxyphenyl)-4,5,6,7-tetrahydropyrazolo[1,5-a]pyrimidine-3-carboxamide], the DC50 is > 10 µM.

In the case of `CN(CCC(=O)N1CCC([C@@H]2CCNc3c(C(N)=O)c(-c4ccc(Oc5ccccc5)cc4)nn32)CC1)CC1CCN(c2ccc3c(c2)C(=O)N(C2CCC(=O)NC2=O)C3=O)CC1` (stereo partly drawn) [Example 64, (7S)-7-(1-(3-(((1-(2-(2,6-dioxopiperidin-3-yl)-1,3-dioxoisoindolin-5-yl)piperidin-4-yl)methyl)(methyl)amino)propanoyl)piperidin-4-yl)-2-(4-phenoxyphenyl)-4,5,6,7-tetrahydropyrazolo[1,5-a]pyrimidine-3-carboxamide], the DC50 was 0.035 µM.

`NC(=O)c1c(-c2ccc(Oc3ccccc3)cc2)nn2c1NCC[C@H]2C1CCN(C(=O)c2cn(CCOCCOCCOCCOCC#Cc3cccc4c3CN(C3CCC(=O)NC3=O)C4=O)nn2)CC1` (stereo partly drawn) [Example 11, (7S)-7-(1-(1-(15-(2-(2,6-dioxopiperidin-3-yl)-1-oxoisoindolin-4-yl)-3,6,9, 12-tetraoxapentadec-14-yn-1-yl)-1H-1,2,3-triazole-4-carbonyl)piperidin-4-yl)-2-(4-phenoxyphenyl)-4,5,6,7-tetrahydropyrazolo[1,5-a]pyrimidine-3-carboxamide]: the DC50 was 0.176 µM.

Take `NC(=O)c1c(-c2ccc(Oc3ccccc3)cc2)nn2c1NCC[C@H]2C1CCN(C(=O)c2cn(CCOCCNc3cccc4c3C(=O)N(C3CCC(=O)NC3=O)C4=O)nn2)CC1` (stereo partly drawn) [Example 2, (7S)-7-(1-(1-(2-(2-((2-(2,6-dioxopiperidin-3-yl)-1,3-dioxoisoindolin-4-yl)amino)ethoxy)ethyl)-1H-1,2,3-triazole-4-carbonyl)piperidin-4-yl)-2-(4-phenoxyphenyl)-4,5,6,7-tetrahydropyrazolo[1,5-a]pyrimidine-3-carboxamide]: the DC50 was > 10 µM.

Take `CN(C/C=C/C(=O)N1CCC([C@@H]2CCNc3c(C(N)=O)c(-c4ccc(Oc5ccccc5)cc4)nn32)CC1)CCCCCCN1C(=O)CCC(N2C(=O)c3cccc(N)c3C2=O)C1=O` (stereo partly drawn) [Example 50, (7S)-7-(1-((E)-4-((6-(3-(4-amino-1,3-dioxoisoindolin-2-yl)-2,6-dioxopiperidin-1-yl)hexyl)(methyl)amino)but-2-enoyl)piperidin-4-yl)-2-(4-phenoxyphenyl)-4,5,6,7-tetrahydropyrazolo[1,5-a]pyrimidine-3-carboxamide]: the DC50 is > 10 µM.

Regarding `NC(=O)c1c(-c2ccc(Oc3ccccc3)cc2)nn2c1NCC[C@H]2C1CCN(C(=O)c2cn(CCOCCOCCOCC#Cc3cccc4c3CN(C3CCC(=O)NC3=O)C4=O)nn2)CC1` (stereo partly drawn) [Example 9, (7S)-7-(1-(1-(2-(2-(2-((3-(2-(2,6-dioxopiperidin-3-yl)-1-oxoisoindolin-4-yl)prop-2-yn-1-yl)oxy)ethoxy)ethoxy)ethyl)-1H-1,2,3-triazole-4-carbonyl)piperidin-4-yl)-2-(4-phenoxyphenyl)-4,5,6,7-tetrahydropyrazolo[1,5-a]pyrimidine-3-carboxamide], the DC50 is > 10 µM.

Consider `NC(=O)c1c(-c2ccc(Oc3ccccc3)cc2)nn2c1NCC[C@H]2C1CCN(C(=O)COCCOCCNC(=O)CCCCN2CCN(c3ccc4c(c3)C(=O)N(C3CCC(=O)NC3=O)C4=O)CC2)CC1` (stereo partly drawn) [Example 35, (7S)-7-(1-(2-(2-(2-(5-(4-(2-(2,6-dioxopiperidin-3-yl)-1,3-dioxoisoindolin-5-yl)piperazin-1-yl)pentanamido)ethoxy)ethoxy)acetyl)piperidin-4-yl)-2-(4-phenoxyphenyl)-4,5,6,7-tetrahydropyrazolo[1,5-a]pyrimidine-3-carboxamide], for which the DC50 worked out at 0.326 µM.

`NC(=O)c1c(-c2ccc(Oc3ccccc3)cc2)nn2c1NCC[C@H]2C1CCN(C(=O)COCCCCCCCCNC(=O)COc2cccc3c2CN(C2CCC(=O)NC2=O)C3=O)CC1` (stereo partly drawn) [Example 25, (7S)-7-(1-(2-((8-(2-((2-(2,6-dioxopiperidin-3-yl)-1-oxoisoindolin-4-yl)oxy)acetamido)octyl)oxy)acetyl)piperidin-4-yl)-2-(4-phenoxyphenyl)-4,5,6,7-tetrahydropyrazolo[1,5-a] pyrimidine-3-carboxamide]: the DC50 is > 10 µM.

`NC(=O)c1c(-c2ccc(Oc3ccccc3)cc2)nn2c1NCC[C@H]2C1CCN(C(=O)CCN2CCN(C(=O)CNc3ccc4c(c3)C(=O)N(C3CCC(=O)NC3=O)C4=O)CC2)CC1` (stereo partly drawn) [Example 63, (7S)-7-(1-(3-(4-((2-(2,6-dioxopiperidin-3-yl)-1,3-dioxoisoindolin-5-yl)glycyl)piperazin-1-yl)propanoyl)piperidin-4-yl)-2-(4-phenoxyphenyl)-4,5,6,7-tetrahydropyrazolo[1,5-a]pyrimidine-3-carboxamide] registered a DC50 of 0.0029 µM.
